{
  "source": "paper PMC12980303",
  "about": "“Development of a novel risk score reflecting the relative harm potential of synthetic cannabinoids based on prevalence estimates, well‐documented intoxication cases and basic pharmacological data” (Addiction (Abingdon, England), 2025)",
  "key": {"[1]": {"molecular_target": "hCB1 receptor (Homo sapiens, UniProt P21554)", "sequence (P21554 whole entry)": "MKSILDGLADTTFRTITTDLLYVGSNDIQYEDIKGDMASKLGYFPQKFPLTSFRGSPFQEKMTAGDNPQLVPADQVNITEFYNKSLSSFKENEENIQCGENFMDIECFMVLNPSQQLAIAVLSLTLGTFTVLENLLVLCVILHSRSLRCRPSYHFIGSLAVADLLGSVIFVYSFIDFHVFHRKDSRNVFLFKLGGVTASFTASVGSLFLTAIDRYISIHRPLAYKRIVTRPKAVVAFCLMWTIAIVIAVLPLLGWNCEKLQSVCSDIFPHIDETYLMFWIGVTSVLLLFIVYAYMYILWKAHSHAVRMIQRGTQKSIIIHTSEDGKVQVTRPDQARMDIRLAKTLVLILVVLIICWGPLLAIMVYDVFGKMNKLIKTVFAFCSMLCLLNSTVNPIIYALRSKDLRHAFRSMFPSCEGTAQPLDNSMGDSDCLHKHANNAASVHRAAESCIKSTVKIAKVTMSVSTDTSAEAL", "assay": "functional [35S]GTPγS hCB1 activation assay", "format": "biochemical", "method": "Receptor assays were performed on three different days and each concentration was tested in duplicate."}, "[2]": {"assay": "risk score from prevalence in routine forensic samples and intoxication cases (G1, PSS, TSS)", "set-up": "species or system human", "from_the_text": "Therefore, higher values indicate substances with a higher risk. […] To take into account the severity of symptoms and the contribution of the specific NPS, two further summands were introduced. The first is based on the PSS, the second on the TSS. Again, higher values were associated with more severe symptoms and a stronger role of the NPS in causing the symptoms.\nThe risk score is composed of three components (parts G1, G2 and G3) and was designed as follows: (1) Gx=G1x+G2x+G3x,\nEquation 2 takes into consideration several components: the number of intoxications with SCRA x in quarter k over the total number of intoxications of all investigated SCRAs in the same quarter; the number of serum/blood samples positive for SCRA x over the total number of serum/blood samples positive for all SCRAs plus the number of urine samples positive for SCRA x over the total number of urine samples positive for all SCRAs (this is divided by two to account for the two different sample types); and the number of quarters in which the SCRA x was prevalent. (2) G1x=∑k=1gak/bk/ck/dk+ek/fk/2/h+i\nConsequently, equation 2 was mathematically rearranged. To further simplify the equation and reduce the formula signs, in equation 3 the following simplifications were taken: a/b=ai , c/d=as and e/f=au .\nThe sum of these quotients was divided by the number of all prevalent quarters (q p ). Prevalent quarters were defined as quarters in which on average the substance was detected in more than 5% of the positive serum and urine samples. If a poisoning occurred in a quarter in which the substance was not prevalent, the number of these quarters was added (q i ). This part of the score has similarities with an OR [42]. If the proportion of routine samples in a given quarter in which an intoxication with the respective substance occurred was zero (a s + a u = 0), a value of 0.01 was used for that quarter in the calculation of the quotient to avoid division by zero.\nFor part G2, the severity of the intoxication caused by the respective SCRA x was assessed on the basis of reported symptoms and follow‐up information using the PSS [20]. The PSS classifies the intoxication severity into five levels: (0) no, (1) mild, (2) moderate, (3) severe, and (4) fatal intoxication. […] For this purpose, the mean value of the PSS of all intoxications with the respective SCRA x was calculated ( G2x) .\nFor part G3, the involvement of the SCRA in the respective intoxications was assessed. This was evaluated on the basis of the TSS [21]. Elliott et al. developed the TSS to assess and classify the contribution of NPS in fatalities. In the present study, the TSS was determined to weigh the involvement of the investigated SCRA in the intoxication and the contribution of the SCRA to the observed symptoms. To determine the TSS value, factors such as the determined concentration of the SCRA, the presence of other recreational drugs or medicinal drugs, the general health of the patient and the consumption circumstances need to be considered. […] In cases with more than one drug detected, a TSS of 3 was only assigned where other compounds were present at concentrations below the range in which relevant effects are to be expected.\nFor the risk score, the mean value of the TSS of all intoxications with substance x was calculated ( G3x) . Analogous to the value of G2x , the value of G3x can theoretically be between 1 and 3. With a value of ‘1’, substance x was not mainly responsible for the symptoms in all of the intoxications (low level of significance), and with a value of ‘3’, it was the main cause in every poisoning in which it was detected."}},
  "data": [
    {"smiles": "CC(C)C(NC(=O)c1nn(CC2CCCCC2)c2ccccc12)C(N)=O", "note": "(stereo not drawn)", "values": [
      {"measurement": "EC50", "setting": "[1]", "result": 5.09, "unit": "nM"},
      {"measurement": "Emax", "setting": "[1]; read-out: [35S]‐GTPγS assay Emax [%] (95% CI)", "result": 124, "unit": "%"},
      {"measurement": "G total (risk score)", "setting": "[2]; G1+G2+G3, higher value = greater toxicological risk", "result": 7.2},
      {"measurement": "G2", "setting": "[2]; mean Poison Severity Score (PSS) of all intoxications with the SCRA", "result": 2.1},
      {"measurement": "G3", "setting": "[2]; mean Toxicological Significance Score (TSS) of all intoxications with the SCRA", "result": 2.3},
      {"measurement": "G1", "setting": "[2]; proportion in intoxication cases relative to prevalence in routine serum/blood and urine samples per quarter, 2013–2021, >1 over‐represented in intoxications", "result": 2.8}
    ]}
  ]
}
